In this assay the target is T1, hROCK-2 (Homo sapiens, UniProt O75116).
T1 construct: purchased Upstate
Kind of assay: ROCK-2 Assay (33P-ATP FlashPlate kinase assay, biotinylated S6 peptide). Conditions: hROCK-2 0.8 nM, 5 μM ATP, 1.5 μM biotinylated S6 peptide, room temperature, 60 min. Format: biochemical. As to the method:
The reaction is stopped by addition of 150 μl of 0.1 M EDTA in Dulbecco's PBS. 170 μl from each well are loaded onto a FlashPlate (PerkinElmer) and incubated at room temperature for 30 min.

Among the data in patent publication US20150105386A1, “4-(4-PYRIDINYL)-BENZAMIDES AND THEIR USE AS ROCK ACTIVITY MODULATORS” (AbbVie Deutschland GmbH & Co KG, priority 2007, published 2015) are Ki values, retold here.

The structures appear in SMILES notation. pKi: −log10 of the molar value.

T1 sequence (O75116 whole entry): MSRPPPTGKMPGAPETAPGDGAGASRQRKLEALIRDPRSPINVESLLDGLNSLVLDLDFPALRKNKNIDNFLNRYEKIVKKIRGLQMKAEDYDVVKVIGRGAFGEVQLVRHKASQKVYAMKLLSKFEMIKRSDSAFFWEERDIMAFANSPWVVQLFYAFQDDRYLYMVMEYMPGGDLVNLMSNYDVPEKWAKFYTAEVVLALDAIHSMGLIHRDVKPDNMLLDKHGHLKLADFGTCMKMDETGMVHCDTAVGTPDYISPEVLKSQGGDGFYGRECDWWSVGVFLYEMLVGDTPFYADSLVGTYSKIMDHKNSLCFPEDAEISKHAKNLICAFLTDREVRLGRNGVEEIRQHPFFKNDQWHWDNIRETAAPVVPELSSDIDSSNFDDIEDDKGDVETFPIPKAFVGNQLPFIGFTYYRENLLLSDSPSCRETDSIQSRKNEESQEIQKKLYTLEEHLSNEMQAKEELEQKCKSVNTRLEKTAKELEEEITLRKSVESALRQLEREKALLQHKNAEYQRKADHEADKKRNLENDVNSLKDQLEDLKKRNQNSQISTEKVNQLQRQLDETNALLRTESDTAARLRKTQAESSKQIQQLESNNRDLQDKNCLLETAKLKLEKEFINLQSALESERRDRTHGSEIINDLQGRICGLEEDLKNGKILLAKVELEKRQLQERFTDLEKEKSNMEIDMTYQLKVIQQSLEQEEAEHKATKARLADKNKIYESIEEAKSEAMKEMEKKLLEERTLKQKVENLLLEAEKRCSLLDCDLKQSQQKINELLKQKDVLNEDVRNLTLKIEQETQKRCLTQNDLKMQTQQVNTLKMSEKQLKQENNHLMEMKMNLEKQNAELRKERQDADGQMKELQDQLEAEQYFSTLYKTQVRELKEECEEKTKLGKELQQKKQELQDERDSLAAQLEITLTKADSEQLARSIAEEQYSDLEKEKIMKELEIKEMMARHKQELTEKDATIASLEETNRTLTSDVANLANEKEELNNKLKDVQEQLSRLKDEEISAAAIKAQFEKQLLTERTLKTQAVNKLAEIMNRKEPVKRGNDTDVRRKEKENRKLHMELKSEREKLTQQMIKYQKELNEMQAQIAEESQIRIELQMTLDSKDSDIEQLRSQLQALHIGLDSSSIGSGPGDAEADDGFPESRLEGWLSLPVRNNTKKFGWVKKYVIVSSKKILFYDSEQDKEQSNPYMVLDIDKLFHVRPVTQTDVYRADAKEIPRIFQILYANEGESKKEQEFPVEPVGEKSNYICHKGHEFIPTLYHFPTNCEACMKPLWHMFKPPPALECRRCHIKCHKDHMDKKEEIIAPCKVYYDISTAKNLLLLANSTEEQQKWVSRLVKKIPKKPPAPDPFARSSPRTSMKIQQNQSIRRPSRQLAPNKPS

Regarding `O=C(NC(Cn1ccnc1)c1ccccc1)c1ccc(-c2ccncc2)cc1` (stereo not shown) [Example 35, N-[2-(1H-imidazol-1-yl)-1-phenylethyl]-4-pyridin-4-ylbenzamide], the pKi (usually −log10 of the Ki, conventionally taken in molar units) is over 7.30. Under `C[C@@H](NC(=O)c1ccc(-c2ccncc2)cc1)c1ccccn1` [Example 80, 4-pyridin-4-yl-N-[(1R)-1-pyridin-2-ylethyl]benzamide] stands 6.30 to 7.30; under `C[C@@H](NC(=O)c1ccc(-c2ccncc2)cc1Cl)c1ccccc1` [Example 191, 2-chloro-N—((R)-1-phenyl-ethyl)-4-pyridin-4-yl-benzamide], 6.30 to 7.30. As to `Cc1cnccc1-c1ccc(C(=O)N[C@H](C)c2ccc(F)cc2)cc1` [Example 180, N—[(R)-1-(4-fluoro-phenyl)-ethyl]-4-(3-methyl-pyridin-4-yl)-benzamide], the pKi was over 7.30. The molecule `Cc1cnccc1-c1ccc(C(=O)N[C@H](C)c2cccc3ccccc23)cc1` [Example 159, 4-(3-methyl-pyridin-4-yl)-N—((R)-1-naphthalen-1-yl-ethyl)-benzamide] showed a negative logarithm of the Ki (pKi) of over 7.30.

On to `COc1cccc([C@@H](C)NC(=O)c2ccc(-c3ccncc3)c(OC)c2)c1` [Example 97, 3-methoxy-N—[(R)-1-(3-methoxy-phenyl)-ethyl]-4-pyridin-4-yl-benzamide], for which the pKi was over 7.30. Next, `C[C@@H](NC(=O)c1ccc(-c2ccncc2)c(F)c1)c1cccc2ccccc12` [Example 217, 3-fluoro-N—((R)-1-naphthalen-1-yl-ethyl)-4-pyridin-4-yl-benzamide]: over 7.30; `COc1ccccc1[C@@H](C)NC(=O)c1ccc(-c2ccncc2C)cc1` [Example 175, N—[(R)-1-(2-methoxy-phenyl)-ethyl]-4-(3-methyl-pyridin-4-yl)-benzamide]: 6.30 to 7.30. Turning to `O=C(N[C@@H](c1ccccc1)[C@H](O)c1ccccc1)c1ccc(-c2ccncc2)cc1` [Example 29, N-[(1S,2R)-2-hydroxy-1,2-diphenylethyl]-4-pyridin-4-ylbenzamide], the pKi is 6.30 to 7.30. Under `COc1cc(-c2ccncc2)ccc1C(=O)NC(CO)c1cccc2ccccc12` (stereo not shown) [Example 140, N-(2-hydroxy-1-naphthalen-1-yl-ethyl)-2-methoxy-4-pyridin-4-ylbenzamide] stands over 7.30; under `COc1cccc([C@@H](C)NC(=O)c2ccc(-c3ccncc3C)cc2)c1` [Example 101, N—[(R)-1-(3-Methoxy-phenyl)-ethyl]-4-(3-methyl-pyridin-4-yl)-benzamide], over 7.30; under `COc1cccc([C@@H](C)NC(=O)c2ccc(-c3ccncc3)cc2C)c1` [Example 96, N—[(R)-1-(3-methoxy-phenyl)-ethyl]-2-methyl-4-pyridin-4-yl-benzamide], over 7.30. Next, `C[C@@H](NC(=O)c1ccc(-c2ccncc2)cc1)c1cc(C(F)(F)F)cc(C(F)(F)F)c1` [Example 89, N-{(1R)-1-[3,5-bis(trifluoromethyl)phenyl]ethyl}-4-pyridin-4-ylbenzamide]: 6.30 to 7.30; `O=C(NC(c1ccccc1)[C@@H](O)c1ccccc1)c1ccc(-c2ccncc2)cc1` (stereo partly drawn) [Example 34, N-[(2S)-2-hydroxy-1,2-diphenylethyl]-4-pyridin-4-ylbenzamide]: 6.30 to 7.30. Next, `COc1cccc([C@@H](C)NC(=O)c2ccc(-c3ccncc3)c(F)c2)c1` [Example 244, 3-fluoro-N—[(R)-1-(3-methoxy-phenyl)-ethyl]-4-pyridin-4-yl-benzamide]: over 7.30; `CC(NC(=O)c1ccc(-c2ccncc2)cc1)c1cccs1` (stereo not shown) [Example 72, 4-pyridin-4-yl-N—O-(2-thienyl)ethypenzamide]: over 7.30; `CN1CCN(CC(NC(=O)c2ccc(-c3ccncc3)cc2)c2ccccc2)CC1` (stereo not shown) [Example 33, N-[2-(4-methylpiperazin-1-yl)-1-phenylethyl]-4-pyridin-4-ylbenzamide]: 6.30 to 7.30. `CCOc1cc(-c2ccncc2)ccc1C(=O)N[C@H](C)c1cccc(OC)c1` [Example 249, 2-ethoxy-N—[(R)-1-(3-methoxy-phenyl)-ethyl]-4-pyridin-4-yl-benzamide] had a pKi of over 7.30. Under `COC[C@@H](NC(=O)c1ccc(-c2ccncc2)cc1)c1ccccc1` [Example 188, N—((S)-2-methoxy-1-phenyl-ethyl)-4-pyridin-4-yl-benzamide] stands over 7.30; under `Cc1cnccc1-c1ccc(C(=O)N[C@H](C)c2ccc3ccccc3c2)cc1` [Example 170, 4-(3-methyl-pyridin-4-yl)-N—((R)-1-naphthalen-2-yl-ethyl)-benzamide], 6.30 to 7.30. Molecule `Cc1ccc(C(CO)NC(=O)c2ccc(-c3ccncc3)cc2)cc1C` (stereo not shown) [Example 41, N-[1-(3,4-dimethylphenyl)-2-hydroxyethyl]-4-pyridin-4-ylbenzamide] showed a negative logarithm of the Ki (pKi) of over 7.30. With `COc1cc(-c2ccncc2)ccc1C(=O)N[C@H](C)c1cccc(C(F)(F)F)c1` [Example 132, 2-methoxy-4-pyridin-4-yl-N—[(R)-1-(3-trifluoromethyl-phenyl)-ethyl]-benzamide], the pKi is over 7.30.
